These results are taken from patent US8258311B2, “Human protein tyrosine phosphatase inhibitors and methods of use” (Aerpio Therapeutics Inc., priority 2006, dated 2012).

Structures are written as SMILES.

For experiment [1], the target named is HPTPβ (Homo sapiens, UniProt P23467). The experiment in a line: HPTPβ inhibition (IC50). Format: biochemical.
Experiment [2] deals with T1, PTP1B (Homo sapiens, UniProt P18031).
T1 sequence (P18031 1-435): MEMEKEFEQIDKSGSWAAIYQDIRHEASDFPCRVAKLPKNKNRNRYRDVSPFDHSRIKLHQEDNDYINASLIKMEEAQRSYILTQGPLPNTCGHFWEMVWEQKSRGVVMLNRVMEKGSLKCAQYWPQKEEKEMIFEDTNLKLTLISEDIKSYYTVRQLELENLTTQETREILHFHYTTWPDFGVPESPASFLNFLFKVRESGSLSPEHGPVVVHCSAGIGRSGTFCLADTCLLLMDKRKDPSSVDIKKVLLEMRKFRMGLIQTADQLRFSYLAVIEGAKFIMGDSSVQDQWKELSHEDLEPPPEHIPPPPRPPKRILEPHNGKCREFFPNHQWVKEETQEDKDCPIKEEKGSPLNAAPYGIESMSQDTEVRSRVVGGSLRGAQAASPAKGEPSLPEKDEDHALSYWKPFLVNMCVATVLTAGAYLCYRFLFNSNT
The experiment in a line: PTP1B inhibition (IC50). It counts as biochemical.

Chain of HPTPβ (P23467 23-1997): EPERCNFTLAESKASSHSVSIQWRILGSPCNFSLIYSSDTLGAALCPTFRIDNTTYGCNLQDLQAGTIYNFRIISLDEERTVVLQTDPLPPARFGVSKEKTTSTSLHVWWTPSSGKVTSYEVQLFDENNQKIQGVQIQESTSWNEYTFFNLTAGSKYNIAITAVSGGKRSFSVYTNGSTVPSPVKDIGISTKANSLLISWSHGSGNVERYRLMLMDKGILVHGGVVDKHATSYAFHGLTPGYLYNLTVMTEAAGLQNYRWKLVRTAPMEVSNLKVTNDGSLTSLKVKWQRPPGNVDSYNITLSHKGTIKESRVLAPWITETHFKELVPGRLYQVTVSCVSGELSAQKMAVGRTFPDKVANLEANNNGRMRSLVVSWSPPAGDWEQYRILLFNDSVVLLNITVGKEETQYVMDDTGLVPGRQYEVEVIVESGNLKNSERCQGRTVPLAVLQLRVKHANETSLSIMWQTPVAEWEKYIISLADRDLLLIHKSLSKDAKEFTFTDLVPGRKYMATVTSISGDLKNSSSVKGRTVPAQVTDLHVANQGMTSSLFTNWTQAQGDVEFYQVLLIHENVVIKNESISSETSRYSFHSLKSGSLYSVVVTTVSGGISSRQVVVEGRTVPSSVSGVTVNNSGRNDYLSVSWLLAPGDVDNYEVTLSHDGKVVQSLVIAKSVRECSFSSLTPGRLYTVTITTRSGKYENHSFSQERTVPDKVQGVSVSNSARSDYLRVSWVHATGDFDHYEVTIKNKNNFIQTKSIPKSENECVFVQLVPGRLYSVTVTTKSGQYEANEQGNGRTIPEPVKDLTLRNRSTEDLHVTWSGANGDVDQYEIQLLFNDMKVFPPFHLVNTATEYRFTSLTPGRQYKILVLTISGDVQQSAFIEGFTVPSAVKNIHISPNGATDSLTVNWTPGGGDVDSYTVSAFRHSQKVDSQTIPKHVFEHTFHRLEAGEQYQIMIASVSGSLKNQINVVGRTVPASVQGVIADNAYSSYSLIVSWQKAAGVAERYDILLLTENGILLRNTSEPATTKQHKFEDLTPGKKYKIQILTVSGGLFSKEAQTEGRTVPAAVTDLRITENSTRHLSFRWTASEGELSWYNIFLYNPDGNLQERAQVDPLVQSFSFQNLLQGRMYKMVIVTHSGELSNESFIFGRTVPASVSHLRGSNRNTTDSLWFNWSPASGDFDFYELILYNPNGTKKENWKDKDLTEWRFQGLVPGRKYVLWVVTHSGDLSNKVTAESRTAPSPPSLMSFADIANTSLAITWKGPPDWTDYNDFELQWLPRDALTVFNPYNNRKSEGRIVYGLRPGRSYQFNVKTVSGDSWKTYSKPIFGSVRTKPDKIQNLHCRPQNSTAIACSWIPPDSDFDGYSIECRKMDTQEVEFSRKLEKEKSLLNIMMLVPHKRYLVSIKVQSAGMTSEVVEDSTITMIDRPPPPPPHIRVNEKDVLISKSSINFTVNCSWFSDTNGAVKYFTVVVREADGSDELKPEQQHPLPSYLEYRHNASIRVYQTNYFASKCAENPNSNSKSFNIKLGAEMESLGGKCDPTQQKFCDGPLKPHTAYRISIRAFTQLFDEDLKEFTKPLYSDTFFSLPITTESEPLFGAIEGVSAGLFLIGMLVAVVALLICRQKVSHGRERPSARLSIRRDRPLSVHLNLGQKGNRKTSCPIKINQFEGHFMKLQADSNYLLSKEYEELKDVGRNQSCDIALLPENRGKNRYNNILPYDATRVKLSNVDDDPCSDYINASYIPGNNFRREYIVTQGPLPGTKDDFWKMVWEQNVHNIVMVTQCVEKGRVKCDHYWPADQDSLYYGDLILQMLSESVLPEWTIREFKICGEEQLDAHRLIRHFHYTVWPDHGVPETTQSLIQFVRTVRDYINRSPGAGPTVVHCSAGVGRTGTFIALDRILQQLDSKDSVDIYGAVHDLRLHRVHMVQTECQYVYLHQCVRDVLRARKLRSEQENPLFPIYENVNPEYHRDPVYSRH

Consider `COC(=O)N[C@@H](Cc1ccccc1)C(=O)N[C@@H](Cc1ccc(NS(=O)(=O)O)cc1)c1nc(C(C)(C)C)cs1` [4-{(S)-2-(4-tert-Butylthiazol-2-yl)-2-[(S)-2-(methoxycarbonylamino)-3-phenylpropanamido]ethyl}phenylsulfamic acid], for which the IC50 (commonly the concentration that inhibits the measured activity by half) in experiment [1] worked out at 0.2 nM; in experiment [2], 708 nM.
In the case of `COC(=O)N[C@@H](Cc1ccccc1)C(=O)N[C@@H](Cc1ccc(NS(=O)(=O)O)cc1)c1nc2c(s1)CCC2` [4-{(S)-2-(5,6-Dihydro-4H-cyclopenta[d]thiazol-2-yl)-2-[(S)-2-(methoxycarbonylamino)-3-phenylpropanamido]ethyl}phenylsulfamic acid], the IC50 in experiment [1] was determined as 1 nM; in experiment [2] it was 180 nM.
The corresponding values for `CC(=O)N[C@@H](Cc1ccccc1)C(=O)N[C@@H](Cc1ccc(NS(=O)(=O)O)cc1)c1nc(-c2ccsc2)cs1` [4-{(S)-2-((S)-2-Acetamido-3-phenylpropanamido)-2-[4-(thiophen-3-yl)thiazol-2-yl]ethyl}phenylsulfamic acid] are 0.24 nM and 1160 nM.
For `COC(=O)N[C@@H](Cc1ccccc1)C(=O)N[C@@H](Cc1ccc(NS(=O)(=O)O)cc1)c1csc(CS(=O)(=O)C(C)(C)C)n1` [4-{(S)-2-[2-(tert-Butylsulfonylmethyl)thiazol-4-yl]-2-[(S)-2-(methoxycarbonylamino)-3-phenylpropanamido]ethyl}phenylsulfamic acid], the IC50 turned out to be 2 nM in experiment [1] and 1210 nM in experiment [2].
For `CCc1csc([C@H](Cc2ccc(NS(=O)(=O)O)cc2)NC(=O)[C@@H](Cc2ccccc2)NC(=O)OC(C)(C)C)n1` [4-{(S)-2-[(R)-2-(tert-butoxycarbonylamino)-3-phenylpropanamido]-2-(4-ethylthiazol-2-yl)ethyl}phenylsulfamic acid], the figures for the IC50 in experiment [1] and in experiment [2] were 4 nM and 7120 nM, respectively.
The corresponding values for `CCOC(=O)N[C@@H](Cc1ccccc1)C(=O)N[C@@H](Cc1ccc(NS(=O)(=O)O)cc1)c1nc(CC)cs1` [4-{(S)-2-[(S)-2-(Ethoxycarbonylamino)-3-phenylpropanamido]-2-(4-ethylthiazol-2-yl)ethyl}phenylsulfamic acid] are 0.14 nM and 680 nM.
`COC(=O)N[C@@H](Cc1ccccc1)C(=O)N[C@@H](Cc1ccc(NS(=O)(=O)O)cc1)c1nc(CCC(F)(F)F)cs1` [4-{(S)-2-[(S)-2-(Methoxycarbonylamino)-3-phenylpropanamido)-2-[4-(3,3,3-trifluoropropyl)thiazol-2-yl]ethyl}phenylsulfamic acid]: the IC50 worked out at 0.08 nM in experiment [1] and 120 nM in experiment [2].
The corresponding values for `CCc1nc([C@H](Cc2ccc(NS(=O)(=O)O)cc2)NC(=O)[C@H](Cc2ccccc2)NC(=O)OC)cs1` [4-{(S)-2-[(S)-2-(Methoxycarbonylamino)-3-phenylpropanamido]-2-(2-ethylthiazol-4-yl)ethyl}phenylsulfamic acid] are 0.1 nM and 1010 nM.
The corresponding values for `COC(=O)N[C@@H](Cc1ccccc1)C(=O)N[C@@H](Cc1ccc(NS(=O)(=O)O)cc1)c1csc(C)n1` [4-{(S)-2-[(S)-2-(Methoxycarbonylamino)-3-phenylpropanamido]-2-(2-methylthiazol-4-yl)ethyl}phenylsulfamic acid] are 1 nM and 1160 nM.
The corresponding values for `COC(=O)N[C@@H](Cc1ccccc1)C(=O)N[C@@H](Cc1ccc(NS(=O)(=O)O)cc1)c1nc2c(s1)CCCC2` [4-{(S)-2-[(S)-2-(Methoxycarbonylamino)-3-phenylpropanamido]-2-(4,5,6,7-tetrahydrobenzo[d]thiazol-2-yl)ethyl}phenylsulfamic acid] are 0.4 nM and 89 nM.
Take `COC(=O)N[C@@H](Cc1ccccc1)C(=O)N[C@@H](Cc1ccc(NS(=O)(=O)O)cc1)c1nc(C)cs1` [4-{(S)-2-[(S)-2-(Methoxycarbonylamino)-3-phenylpropanamido]-2-(4-methylthiazol-2-yl)ethyl}phenylsulfamic acid]: the IC50 in experiment [1] was found to be 1 nM; in experiment [2], 480 nM.
